Experimental data reported in patent publication US20220192195A1, “HERBICIDAL COMPOSITIONS” (SYNGENTA CROP PROTECTION AG, priority 2019, published 2022).

Columns and labels:
Assay in all cases: Post-emergence efficacy (B1), compounds of Formula (I) alone, evaluated after 13 days
Format in all cases: in vivo
Eleusine indica (ELEIN) = settings: 500 g/Ha, post-emergence spray
Protocol: (§1) Seeds of a variety of test species were sown in standard laom-based soil in pots: Ipomoea hederacea (IPOHE), Euphorbia heterophylla (EPHHL), Chenopodium album (CHEAL), Amaranthus palmeri (AMAPA), Lolium perenne (LOLPE), Digitaria sanguinalis (DIGSA), Eleusine indica (ELEIN), Echinochloa crus-galli (ECHCG), Setaria faberi (SETFA). After cultivation for 14 days (post-emergence) under controlled conditions in a glasshouse (at 24/16° C., day/night; 14 hours light; 65% humidity), the plants were sprayed with an aqueous spray solution derived from the dissolution of the technical active ingredient Formula (I) in a small amount of acetone and a special solvent and emulsifier mixture referred to as IF50 (11.12% Emulsogen EL360 TM+44.44% N-methylpyrrolidone+44.44% Dowanol DPM glycol ether), to create a 50 g/I solution which was then diluted to required concentration using 0.25% or 1% Empicol ESC70 (Sodium lauryl ether sulphate)+1% ammonium sulphate as diluent. The delivery of the aqueous spray solution was via a laboratory track sprayer which delivered the aqueous spray composition at a rate of 200 litres per hectare, using a flat fan nozzle (Teejet 11002VS) and an application volume of 200 litre/ha (at 2 bar).
(§2) The test plants were then grown in a glasshouse under controlled conditions (at 24/16° C., day/night; 14 hours light; 65% humidity) and watered twice daily. After 13 days the test was evaluated (100=total damage to plant; 0=no damage to plant).

[1] = system: Euphorbia heterophylla (EPHHL); settings: 500 g/Ha, post-emergence spray
Protocol: as §1, §2

[2] = system: Chenopodium album (CHEAL); settings: 500 g/Ha, post-emergence spray
Protocol: as §1, §2

[3] = system: Amaranthus palmeri (AMAPA); settings: 500 g/Ha, post-emergence spray
Protocol: as §1, §2

Setaria faberi (SETFA) = settings: 312 h, post-emergence spray, read-out: Control of weed species after post-emergence application: SETFA (100=total damage to plant; 0=no damage to plant)
Protocol: as §1, §2

[4] = system: Ipomoea hederacea (IPOHE); settings: 312 h, post-emergence spray, read-out: Control of weed species after post-emergence application: IPOHE (100=total damage to plant; 0=no damage to plant)
Protocol: as §1, §2

Lolium perenne (LOLPE) = settings: 312 h, post-emergence spray, read-out: Control of weed species after post-emergence application: LOLPE (100=total damage to plant; 0=no damage to plant)
Protocol: as §1, §2

[5] = system: Echinochloa crus-galli (ECHCG); settings: 312 h, post-emergence spray, read-out: Control of weed species after post-emergence application: ECHCG (100=total damage to plant; 0=no damage to plant)
Protocol: as §1, §2

[6] = system: Digitaria sanguinalis (DIGSA); settings: 312 h, post-emergence spray, read-out: Control of weed species after post-emergence application: DIGSA (100=total damage to plant; 0=no damage to plant)
Protocol: as §1, §2

N[C@H](CC[n+]1ccc(-c2ncccn2)cn1)C(=O)O.O=C(O)C(F)(F)F.O=C([O-])C(F)(F)F [Compound 1.029, [(1R)-1-carboxy-3-(4-pyrimidin-2-ylpyridazin-1-ium-1-yl)propyl]-ammonium 2,2,2-trifluoroacetate]
Control of weed species after post-emergence application: ELEIN (100=total damage to plant; 0=no damage to plant) (Eleusine indica (ELEIN)): 100 | Control of weed species after post-emergence application: EPHHL (100=total damage to plant; 0=no damage to plant) [1]: 90 | Control of weed species after post-emergence application: CHEAL (100=total damage to plant; 0=no damage to plant) [2]: 100 | Control of weed species after post-emergence application: AMAPA (100=total damage to plant; 0=no damage to plant) [3]: 100

N[C@@H](CC[n+]1ccc(-c2ncccn2)cn1)C(=O)O.O=C(O)C(F)(F)F.O=C([O-])C(F)(F)F [Compound 1.035, [(1S)-1-carboxy-3-(4-pyrimidin-2-ylpyridazin-1-ium-1-yl)propyl]-ammonium 2,2,2-trifluoroacetate]
Control of weed species after post-emergence application: ELEIN (100=total damage to plant; 0=no damage to plant) (Eleusine indica (ELEIN)): 100 | pest or weed control at 500 g/ha (Setaria faberi (SETFA)): 100% | pest or weed control at 500 g/ha [4]: 90% | Control of weed species after post-emergence application: EPHHL (100=total damage to plant; 0=no damage to plant) [1]: 90 | Control of weed species after post-emergence application: CHEAL (100=total damage to plant; 0=no damage to plant) [2]: 100 | Control of weed species after post-emergence application: AMAPA (100=total damage to plant; 0=no damage to plant) [3]: 100 | pest or weed control at 500 g/ha (Lolium perenne (LOLPE)): 20% | pest or weed control at 500 g/ha [5]: 60% | pest or weed control at 500 g/ha [6]: 90%
